From US11761023B2, “Analyzing and using motility kinematics of microorganisms” (PhAST Corp., priority 2017, dated 2023)
Values after ≈ are worked out from the molar mass of the structure shown. Where two headings read alike, the source gives them in different places.

Assays:
Type in all cases: cell-based, Pseudomonas aeruginosa
P. aeruginosa PA14 = experiment: Single-cell swimming kinematics (ASK software, phase contrast video microscopy) upon antibiotic exposure; conditions: for change in swimming speed compared to antibiotic-free control: FIG. 12
[1] = system: susceptible clinical isolate of P. aeruginosa (PSA 9/53); experiment: Single-cell swimming speed (ASK software) relative to antibiotic-free control; conditions: ciprofloxacin 4 μg/ml, meropenem 0.5 μg/ml, gentamicin 8 μg/ml; FIG. 17
Text: The swimming speed (y axis) was normalized by the speed in the control (which thus becomes the dashed line at 1).

[2] = system: clinical isolate P. aeruginosa 9/53; experiment: MIC by broth microdilution assay
P. aeruginosa ATCC 27853 = experiment: MIC by broth microdilution assay

Row | Compound | change in swimming speed compared to antibiotic-free control (P. aeruginosa PA14; 0.1 μg/ml) | decrease of mean swimming speed compared to the antibiotic-free control (P. aeruginosa PA14; 1 μg/ml, after 30 min) [%] | mean swimming speed of exposed cells (P. aeruginosa PA14; 1 μg/ml, after 30 min) [μm/s] | decrease of mean swimming speed compared to the antibiotic-free control (P. aeruginosa PA14; 1 μg/ml, after 50 min) [%] | mean swimming speed of exposed cells (P. aeruginosa PA14; 1 μg/ml, after 50 min) [μm/s] | decrease of mean swimming speed compared to the antibiotic-free control (P. aeruginosa PA14; 1 μg/ml, after 70 min) [%] | mean swimming speed of exposed cells (P. aeruginosa PA14; 1 μg/ml, after 70 min) [μm/s] | sensitivity of motility (swimming speed) to the antibiotic [1] | MIC ([2]; Pseudomonas aeruginosa, read-out: MIC) [µg/mL] | change in swimming speed compared to antibiotic-free control (P. aeruginosa PA14; 1 μg/ml) | change in swimming speed compared to antibiotic-free control (P. aeruginosa PA14; 10 μg/ml) | MIC (P. aeruginosa ATCC 27853) [µg/mL] | MIC [2] [µg/mL]
1 | CC(C)(O/N=C(\C(=O)N[C@@H]1C(=O)N2C(C(=O)[O-])=C(C[n+]3ccccc3)CS[C@H]12)c1csc(N)n1)C(=O)O [ceftazidime] | no significant changes | 14 | 42.6 | 23 | 35.4 | 33 | 31.2 | – | – | – | – | – | –
2 | C[C@@H](O)[C@H]1C(=O)N2C(C(=O)O)=C(S[C@@H]3CN[C@H](C(=O)N(C)C)C3)[C@H](C)[C@H]12 [meropenem] | – | – | – | – | – | – | – | less so | 0.5 (≈ 1.3 µM) | – | – | – | –
3 | gentamicin | not | – | – | – | – | – | – | very sensitive | – | not | significantly reduced | 1 | 1
